Data taken from patent US12491249B2, “Methods for manufacturing phthalocyanine dye conjugates and stable conjugates” (Rakuten Medical, Inc., priority 2015, dated 2025).
Like-named read-outs stand apart in the source and are kept apart here.

Assays:
[1] = cited from earlier work
A431 cells = experiment: EGF-IR700 light-dependent killing; assay type: cell-based; details: for light-dependent killing after conjugate pre-exposure: 1 μg/mL
Description: To assess if EGF-IR700 cell killing was assessed in A431 cells. A431 cells were seeded at 5000 cells per well in 96 well white clear bottom dishes one day prior to the experiment. The following day, the A431 cells were washed three times with EMEM supplemented with 1% Penicillin/Streptomycin (serum free media). The A431 cells were then washed one time with serum free media, then incubated with serum free media containing 1 sg/mL of EGF-IRDye 700DX for one hour at 4° C. or serum free media only. As a control to assess the specificity of the activity, in one condition A431 cells were pre-incubated with 100 sg/mL unconjugated cetuximab diluted in serum free media for one hour at 4° C. prior to incubation with 1 sg/mL of EGF-IRDye 700DX. The cells were then washed one time with serum free media.
To induce IR700-dependent killing, the cells were then illuminated with a 690 nm laser with 32 J/cm^2 of light or protected from light (“no light”). Cell death was evaluated as described in Example 9 using CellTox Green. The normalized percentage of dead cells was calculated by subtracting all wells by the percentage of dead cells from the no light serum free media only control, dividing by EGF-IRDye 700DX at 32 J/cm^2 minus the no light serum-free media only control, and multiplied 100.
The effect of EGF-IRDye 700DX pre-exposure to white light versus green light on photo-activated cell killing was also evaluated in A431 cells. EGF-IRDye 700DX was pre-exposed to different types of light and the effect of light treatment on photo-activated killing activity was evaluated. Five microliters of EGF-IRDye 700DX conjugate (DAR 2) was added per clear HPLC vial at a EGF-IRDye 700DX concentration of 1.14 mg/mL. The following conditions were tested: (1) the antibody-IRDye 700DX conjugate stored at 4° C. protected from light (“4° C.”, used as the control); (2). antibody-IRDye 700DX conjugate placed in a clear glass HPLC tube under a Halogen lamp at 2500 lux for 24 hrs (“white light”); (3) antibody-IRDye 700DX conjugate placed in a clear glass HPLC tube wrapped in aluminum foil to protect from light exposure under Halogen lamp at 2500 lux for 24 hrs (“no light”, used as a control for thermal heating effects on the formation of aggregates); and (4) antibody-IRDye 700DX conjugate placed in a clear glass HPLC tube and exposed to green LED lamp at 2500 lux for 24 hrs (“green light”).
To assess cell killing activity, A431 cells were washed two times with serum free media, and incubated in serum free media alone for one hour at 4° C. The cells were then washed one time with serum free media and incubated with serum free media alone or serum free media containing 1 μg/mL of EGF-IRDye 700DX (“no light”), serum free media containing 1 μg/mL of EGF-IRDye 700DX pre-exposed to white light (“2500 Lux White light”), or serum free media containing 1 μg/mL EGF-IRDye 700DX pre-exposed to green light for one hour at 4° C. (“2500 Lux Green light”). The cells were then washed one time with serum free media.
To induce cell killing, the cells were either protected from light (light dose 0 J/cm^2) or were illuminated with a 690 nm laser with different light dosimetries (8 J/cm^2, 32 J/cm^2 or 64 J/cm).

C=Cc1c(C)c2cc3nc(c(CC(=O)N[C@@H](CC(=O)[O-])C(=O)[O-])c4[nH]c(cc5nc(cc1[nH]2)C(C)=C5CC)c(C)c4C(=O)[O-])[C@@H](CCC(=O)[O-])[C@@H]3C.[Na+].[Na+].[Na+].[Na+] [NPe6/Laserphyrin, mono-L-aspartylchlorin e6]
extinction coefficient ([1]; at 654 nm): 40000 M⁻¹ cm⁻¹

EGF-IRDye 700DX: Human recombinant epidermal growth factor (EGF) conjugated to IRDye 700DX
cell killing (A431 cells; 1 sg/mL, 690 nm 32 J/cm^2 or no light): light-dependent killing
cell killing after receptor blocking (A431 cells; cells pre-exposed to 100 sg/mL unconjugated cetuximab, 1 sg/mL conjugate): blocked light-dependent cell killing
light-dependent killing after conjugate pre-exposure (A431 cells; green light, green LED lamp 2500 lux 24 hours): comparable to that of the “no light” EGF-IRDye 700DX
light-dependent killing after conjugate pre-exposure (A431 cells; protected from light, thermal heating under halogen lamp 2500 lux 24 hours): exhibited light-dependent killing
light-dependent killing after conjugate pre-exposure (A431 cells; white light, halogen lamp 2500 lux 24 hours): no longer exhibited light-dependent killing activity

Photofrin
extinction coefficient ([1]; at 630 nm): 1200 M⁻¹ cm⁻¹
